Measured values taken from patent publication US20240425529A1, “BORIC ACID DERIVATIVE” (SHOUYAO HOLDINGS (BEIJING) CO., LTD., priority 2021, published 2024).

Key:
LMP7 [1] = molecular target: T1, LMP7 (Homo sapiens, UniProt P28062); test: Enzymatic inhibitory activity on LMP7 (MOLT-4 cell lysate, Ac-ANW-AMC substrate); assay type: biochemical; settings: 1 hour pre-incubation
T1 construct: using MOLT-4 cell lysate as the enzyme source of LMP7; endogenous in cells; host or cells: MOLT-4 (human acute lymphoblastic leukemia cells)
Source text: LMP7 is a catalytic subunit of immunoproteasomes. In this experiment, an enzymatic detection platform was established using its hydrolytic enzyme activity and used for compound activity detection. Using Ac-ANW-AMC (Bonston Biochem, Cat #S-320) as a substrate for LMP7, the amount of fluorescent group AMC (7-amino-4-methylcoumarin) released after hydrolysis can reflect the enzymatic activity. MOLT-4 cells are human acute lymphoblastic leukemia cells and have been identified as cells with high expression of LMP7. We established an enzymatic detection method for compound inhibition on LMP7 using MOLT-4 cell lysate as the enzyme source of LMP7 and detected the compound inhibitory activity (half inhibitory concentration, IC50).
(§1) MOLT-4 cells were cultured in a 75 cm^2 cell culture flask (Corning) (37° C., 95% air, and 5% CO2) with RPMI-1640 (Biological Industries) medium containing 10% fetal bovine serum (Biological Industries) and 1% Pen Strep (Gibco) and passaged 2-3 times one week. 1×10^7 MOLT-4 cells were collected, resuspended in 1 ml of PBS (Solarbio), and centrifuged at 3000 rpm for 5 minutes. The supernatant was aspirated off. The cells were resuspended in 500 μl of lysis buffer (20 mM Tris, pH 8.0, 5 mM EDTA, plus Protease inhibitor (1:1000) and Phosphatase Inhibitor (1:100) when used) and left on ice for 30 minutes. The cells were broken by supersonic technique, 0.5 S on, 0.5 S off, for 2.5 S. The centrifuge was performed at 12000 rpm, 4° C. for 10 minutes. The supernatant was the cell lysate and protein quantification was performed by using the BCA method (Thermo, #23225).
Compounds were diluted in a 5-fold gradient with 100% DMSO for a total of 9 concentrations: 2 W for each concentration was added to a 48-μl reaction buffer (20 mM Tris, pH 8.0, 0.5 mM EDTA) and mixed well as 4* compound (final concentrations: 2000, 400, 80, 16, 3.2, 0.64, 0.128, 0.0256, and 0 nM) for later use. A reaction buffer was used to prepare 4* MOLT-4 cell lysate at a final concentration of 20 ng/μl and 2*Ac-ANW-AMC at a final concentration of 100 µM. 5 μl of 4* compound was added to a 384-well plate (OptiPlate-384, purchased from PerkinElmer), added with 5 W of 4* cell lysate, centrifuged, and reacted in an incubator at 23° C. for 1 hour. 10 W of 2* Ac-ANW-AMC was added and the reaction was started by centrifugation at 23° C. in the dark for 2 hours. After completion of the reaction, the signal value (excitation wavelength 345 nm/emission wavelength 445 nm) was read on the CLARIO star^Plus (purchased from BMG LRBTECH). Enzyme activity was determined at 9 concentrations for each compound, and data were processed using the GraphPad Prism software to calculate the half inhibitory concentration of the compound on LMP7, i.e. the IC50 value.

β5 = molecular target: T2, β5 (Homo sapiens, UniProt P28074); test: Enzymatic inhibitory activity on β5 (HEK-293 cell lysate, Ac-WLA-AMC substrate); assay type: biochemical; settings: 1 hour pre-incubation
T2 construct: using HEK-293 cell lysate as the enzyme source of D5; endogenous in cells; host or cells: HEK-293 (human embryonic kidney cells)
Source text: β5 is a catalytic subunit of immunoproteasomes. In this experiment, an enzymatic detection platform was established using its hydrolytic enzyme activity and used for compound activity detection. Using Ac-WLA-AMC (Bonston Biochem, Cat #5-330) as a substrate for D5, the amount of fluorescent group AMC (7-amino-4-methylcoumarin) released after hydrolysis can reflect the enzymatic activity. […] We established an enzymatic detection method for compound inhibition on D5 using HEK-293 cell lysate as the enzyme source of D5 and detected the compound inhibitory activity (half inhibitory concentration, IC50). The enzymatic inhibitory activity of compounds against D5 was used as a measure index of compound selectivity.
as §1, with “HEK-293” for “MOLT-4”, “DMEM” for “RPMI-1640”, “performed” for “performed by”
Compounds were diluted in a 5-fold gradient with 100% DMSO for a total of 9 concentrations. 2 W for each concentration was added to a 48-μl reaction buffer (20 mM Tris, pH 8.0, 0.5 mM EDTA) and mixed well as 4* compound (final concentrations: 100000, 20000, 4000, 800, 160, 32, 6.4, 1.28, and 0 nM) for later use. A reaction buffer was used to prepare 4*HEK-293 cell lysate at a final concentration of 25 ng/μl and 2*Ac-WLA-AMC at a final concentration of 20 μM. 5 W of 4* compound was added to a 384-well plate (OptiPlate-384, purchased from PerkinElmer), added with 5 W of 4*HEK-293 cell lysate, centrifuged, and reacted in an incubator at 23° C. for 1 hour. 10 W of 2* Ac-WLA-AMC was added and the reaction was started by centrifugation at 23° C. in the dark for 2 hours. After completion of the reaction, the signal value (excitation wavelength 345 nm/emission wavelength 445 nm) was read on the CLARIO star^Plus (purchased from BMG LRBTECH). Enzyme activity was determined at 9 concentrations for each compound, and data were processed using the GraphPad Prism software to calculate the half inhibitory concentration of the compound on D5, i.e. the IC50 value.

LMP7 [2] = molecular target: T1, LMP7; test: Cytological inhibitory activity on LMP7 in MOLT-4 cells; assay type: cell-based; settings: incubation for 2 hours with compound, read-out: Cytological activity data LMP7 Activity (MOLT-4Cell)
Procedure: MOLT-4 are human acute lymphoblastic leukemia cells and have been identified as cells with high expression of LMP7. In this experiment, the compounds were pre-incubated with MOLT-4, and Ac-ANW-AMC (BonstonBiochem, Cat #S-320) was used as the substrate of LMP7 to establish the detection method for the enzymatic activity of LMP7 in cells and detect the compound inhibitory activity (half inhibitory concentration, IC50).
Cells were plated in a 24-well plate (Corning) at a concentration of 1.5×10^5/ml per well. The next day compounds were prepared and diluted in a 5-fold gradient from 2 mM in 100% DMSO for a total of 8 concentrations. 2 μl for each concentration of the compound was added to a 1-ml cell culture medium, supplemented with 1 ml of RPMI-1640 only (final FBS concentration 5%, v/v). The compounds were mixed with the cells. After incubation for 2 hours in the incubator, the cells were centrifuged at 2000 rpm for 8 minutes to discard the supernatant. The cells were washed once with 2 ml PBS (Solarbio), and centrifuged again to discard the supernatant. The cells were resuspended in 100 μl of lysis buffer (20 mM Tris, pH 8.0, 5 mM EDTA, plus Protease inhibitor (1: 100) and Phosphatase Inhibitor (1:100) when used) and left in a 4° C. refrigerator for 45 minutes.
After 2 min. of centrifuge at 2000 rpm, the lysate was transferred from the 24-well plate to a 96-well plate, and centrifuged at 2000 rpm, 4° C., for 15 min. The supernatant was the lysate. Protein quantification was performed using the BCA method (Thermo, #23225). A 2* lysate was prepared with the reaction buffer (20 mM Tris, pH 8.0, 0.5 mM EDTA) at a final concentration of 20 ng/μl. 2* Ac-ANW-AMC was prepared with the reaction buffer at a final concentration of 100 μM. 10 µl of 2* lysate was added to a 384-well plate (OptiPlate-384, purchased from PerkinElmer), and added with 10 W of 2* Ac-ANW-AMC. The reaction was started by centrifugation at 23° C. in the dark for 1 hour. After completion of the reaction, the signal value (excitation wavelength 345 nm/emission wavelength 445 nm) was read on the CLARIO starPlus (purchased from BMG LRBTECH). Enzyme activity was determined at 8 concentrations for each compound, and data were processed using the GraphPad Prism software to calculate the half inhibitory concentration of the compound on LMP7 hydrolase in MOLT-4 cells, i.e. the IC50 value.

| IC50 (LMP7 [1]) | IC50 (β5) | IC50 (LMP7 [2]) | Compound |
| --- | --- | --- | --- |
| 1.2 nM | 18.8 nM | 0.32 nM | O=C(Nc1cnccn1)C(=O)N[C@@H](Cc1coc2ccccc12)B1OC(=O)c2ccccc2O1 [Ex. 20, N-((1R)-2-(1-benzofuran-3-yl)-1-(4-oxo-2,4-dihydro-1,3,2-benzo[d][1,3,2]dioxaborinin-2-yl)ethyl)-N-(pyrazin-2-yl)oxalamide] |
| 2.86 nM | 29 nM | 3.45 nM | O=C(Nc1cccnc1)C(=O)N[C@@H](Cc1coc2ccccc12)B(O)O [Ex. 21, (R)-(2-(benzofuran-3-yl)-1-(2-(pyridin-3-yl)amino-2-oxoacetamido)ethyl) boronic acid] |
| 3.57 nM | 22.2 nM | 1.83 nM | O=C(NCC1CCCO1)C(=O)N[C@@H](Cc1coc2ccccc12)B(O)O (stereo partly drawn) [Ex. 22, (R)-(2-(benzofuran-3-yl)-1-(2-(((tetrahydrofuran-2-yl)methyl)amino)-2-oxoacetamido)ethyl)boronic acid] |
| 3.81 nM | 126 nM | 1.65 nM | CC1(C)[C@@H]2C[C@H]3OB([C@H](Cc4coc5ccccc45)NC(=O)C(=O)Nc4ccccn4)O[C@@]3(C)[C@H]1C2 [Ex. 23, (R)-(2-(benzofuran-3-yl)-1-(2-oxo-2-(pyridin-2-ylamino)acetamido)ethyl) boronic acid (1S,2S,3R,5S)-(+)-pinane-2,3-diol ester] |
| 6.27 nM | 115 nM | 3.92 nM | O=C(Nc1cc(Cl)ccc1Cl)C(=O)N[C@@H](Cc1coc2ccccc12)B(O)O [Ex. 24, ((R)-2-(benzofuran-3-yl)-1-(2-oxo-2-((2,5-dichlorophenyl)amino)acetamido)ethyl)boronic acid] |
| 4.86 nM | 19.4 nM | 0.73 nM | COc1ccc2nc(NC(=O)C(=O)N[C@@H](Cc3coc4ccccc34)B(O)O)sc2c1 [Ex. 26, (R)-(2-(benzofuran-3-yl)-1-(2-oxo-2-((6-methoxybenzo[d]thiazol-2-yl)amino)acetamido)ethyl)boronic acid] |
| 3.82 nM | 22.6 nM | 3.84 nM | O=C(Nc1cccc2c1OCC2)C(=O)N[C@@H](Cc1coc2ccccc12)B(O)O [Ex. 28, (R)-(2-(benzofuran-3-yl)-1-(2-oxo-2-((2,3-dihydrobenzofuran-7-yl)amino)acetamido)ethyl)boronic acid] |
| 7.81 nM | 41.4 nM | 15.9 nM | O=C(N[C@@H](Cc1coc2ccccc12)B(O)O)C(=O)N1CC2COCC2C1 (stereo partly drawn) [Ex. 29, (R)-(2-(benzofuran-3-yl)-1-(2-oxo-2-(tetrahydro-1H-furo[3,4-c]pyrrol-5(3H)-yl)acetamido)ethyl)boronic acid] |
| 5.61 nM | 24.6 nM | 8.77 nM | O=C(Nc1cccc2c1OCCO2)C(=O)N[C@@H](Cc1coc2ccccc12)B(O)O [Ex. 30, (R)-(2-(benzofuran-3-yl)-1-(2-oxo-2-((2,3-dihydrobenzo[b][1,4]dioxin-5-yl)amino)acetamido)ethyl)boronic acid] |
| 2.91 nM | 72.5 nM | 11 nM | Cc1csc(NC(=O)C(=O)N[C@@H](Cc2coc3ccccc23)B(O)O)n1 [Ex. 31, (R)-(2-(benzofuran-3-yl)-1-(2-oxo-2-((4-methylthiazol-2-yl)amino)acetamido)ethyl)boronic acid] |
| 3.08 nM | 39 nM | 9.5 nM | CC1(C)[C@@H]2C[C@H]3OB([C@H](Cc4coc5ccccc45)NC(=O)C(=O)Nc4ncc(F)s4)O[C@@]3(C)[C@H]1C2 [Ex. 33, (R)-(2-(benzofuran-3-yl)-1-(2-oxo-2-((5-fluorothiazol-2-yl)amino)acetamido)ethyl)boronic acid (1S,2S,3R,5S)-(+)-pinane-2,3-diol ester] |
| 7.46 nM | 132 nM | 29.2 nM | O=C(Nc1ncc(F)s1)C(=O)N[C@@H](Cc1coc2ccccc12)B(O)O [Ex. 34, (R)-(2-(benzofuran-3-yl)-1-(2-oxo-2-((5-fluorothiazol-2-yl)amino)acetamido)ethyl)boronic acid] |
